The target in one test is SRSF protein kinase 2 (Homo sapiens, UniProt P78362).
The target of a further test is SRSF protein kinase 1 (Homo sapiens, UniProt Q96SB4).
The target in test [1] is Dual specificity protein kinase CLK1 (Homo sapiens, UniProt P49759).
Test [2] addresses Dual specificity protein kinase CLK2 (Homo sapiens, UniProt P49760).
The target of test [3] is Dual specificity protein kinase CLK4 (Homo sapiens, UniProt Q9HAZ1).
Test [4] has as its target Chromatin remodeling regulator CECR2 (Homo sapiens, UniProt Q9BXF3).
In test [5] the target is Nucleosome-remodeling factor subunit BPTF (Homo sapiens, UniProt Q12830).
The target of test [6] is Protein-arginine deiminase type-4 (Homo sapiens, UniProt Q9UM07).
Protein-arginine deiminase type-4, sequence (Q9UM07 whole entry): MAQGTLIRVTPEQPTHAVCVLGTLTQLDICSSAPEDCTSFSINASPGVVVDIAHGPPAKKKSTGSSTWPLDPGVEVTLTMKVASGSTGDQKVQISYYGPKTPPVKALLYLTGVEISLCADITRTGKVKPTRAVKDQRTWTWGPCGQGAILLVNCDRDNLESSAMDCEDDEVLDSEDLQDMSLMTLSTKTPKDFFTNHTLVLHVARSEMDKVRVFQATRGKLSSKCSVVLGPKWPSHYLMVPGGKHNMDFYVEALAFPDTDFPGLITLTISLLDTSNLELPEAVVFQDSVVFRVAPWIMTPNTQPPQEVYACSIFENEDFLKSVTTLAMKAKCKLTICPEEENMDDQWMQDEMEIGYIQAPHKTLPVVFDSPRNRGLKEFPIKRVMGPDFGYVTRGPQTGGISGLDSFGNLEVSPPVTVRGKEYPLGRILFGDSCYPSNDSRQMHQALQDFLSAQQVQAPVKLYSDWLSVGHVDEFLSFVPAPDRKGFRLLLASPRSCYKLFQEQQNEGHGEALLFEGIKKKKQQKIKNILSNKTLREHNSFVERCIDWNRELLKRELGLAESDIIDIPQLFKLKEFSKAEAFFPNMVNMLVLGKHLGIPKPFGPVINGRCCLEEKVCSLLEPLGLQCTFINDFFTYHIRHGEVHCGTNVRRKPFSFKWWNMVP
The next test has as its target CDK8/Cyclin C (Homo sapiens, UniProt P49336). It is filed as protein-complex assay.
Test [7] deals with T1, Bromodomain-containing protein 9 (Homo sapiens, UniProt Q9H8M2).
T1 sequence (Q9H8M2 whole entry): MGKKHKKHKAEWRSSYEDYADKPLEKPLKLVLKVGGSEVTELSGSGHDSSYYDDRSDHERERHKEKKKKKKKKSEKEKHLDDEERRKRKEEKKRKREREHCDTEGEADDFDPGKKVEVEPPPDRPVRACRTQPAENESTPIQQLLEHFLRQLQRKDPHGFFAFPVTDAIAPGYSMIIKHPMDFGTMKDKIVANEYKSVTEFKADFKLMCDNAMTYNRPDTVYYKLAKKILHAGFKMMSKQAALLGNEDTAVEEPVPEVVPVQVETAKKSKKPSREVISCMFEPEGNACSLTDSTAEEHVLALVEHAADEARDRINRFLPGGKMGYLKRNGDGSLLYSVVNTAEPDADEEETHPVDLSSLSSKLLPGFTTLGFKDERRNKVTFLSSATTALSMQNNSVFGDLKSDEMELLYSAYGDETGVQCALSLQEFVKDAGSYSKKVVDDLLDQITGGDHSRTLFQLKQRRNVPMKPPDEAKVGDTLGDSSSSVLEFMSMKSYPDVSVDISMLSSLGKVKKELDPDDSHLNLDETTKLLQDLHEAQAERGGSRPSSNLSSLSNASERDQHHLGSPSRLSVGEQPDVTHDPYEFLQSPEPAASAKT

The target in test [8] is T2, Histone-lysine N-methyltransferase NSD3 (Homo sapiens, UniProt Q9BZ95).
T2 sequence (Q9BZ95 whole entry): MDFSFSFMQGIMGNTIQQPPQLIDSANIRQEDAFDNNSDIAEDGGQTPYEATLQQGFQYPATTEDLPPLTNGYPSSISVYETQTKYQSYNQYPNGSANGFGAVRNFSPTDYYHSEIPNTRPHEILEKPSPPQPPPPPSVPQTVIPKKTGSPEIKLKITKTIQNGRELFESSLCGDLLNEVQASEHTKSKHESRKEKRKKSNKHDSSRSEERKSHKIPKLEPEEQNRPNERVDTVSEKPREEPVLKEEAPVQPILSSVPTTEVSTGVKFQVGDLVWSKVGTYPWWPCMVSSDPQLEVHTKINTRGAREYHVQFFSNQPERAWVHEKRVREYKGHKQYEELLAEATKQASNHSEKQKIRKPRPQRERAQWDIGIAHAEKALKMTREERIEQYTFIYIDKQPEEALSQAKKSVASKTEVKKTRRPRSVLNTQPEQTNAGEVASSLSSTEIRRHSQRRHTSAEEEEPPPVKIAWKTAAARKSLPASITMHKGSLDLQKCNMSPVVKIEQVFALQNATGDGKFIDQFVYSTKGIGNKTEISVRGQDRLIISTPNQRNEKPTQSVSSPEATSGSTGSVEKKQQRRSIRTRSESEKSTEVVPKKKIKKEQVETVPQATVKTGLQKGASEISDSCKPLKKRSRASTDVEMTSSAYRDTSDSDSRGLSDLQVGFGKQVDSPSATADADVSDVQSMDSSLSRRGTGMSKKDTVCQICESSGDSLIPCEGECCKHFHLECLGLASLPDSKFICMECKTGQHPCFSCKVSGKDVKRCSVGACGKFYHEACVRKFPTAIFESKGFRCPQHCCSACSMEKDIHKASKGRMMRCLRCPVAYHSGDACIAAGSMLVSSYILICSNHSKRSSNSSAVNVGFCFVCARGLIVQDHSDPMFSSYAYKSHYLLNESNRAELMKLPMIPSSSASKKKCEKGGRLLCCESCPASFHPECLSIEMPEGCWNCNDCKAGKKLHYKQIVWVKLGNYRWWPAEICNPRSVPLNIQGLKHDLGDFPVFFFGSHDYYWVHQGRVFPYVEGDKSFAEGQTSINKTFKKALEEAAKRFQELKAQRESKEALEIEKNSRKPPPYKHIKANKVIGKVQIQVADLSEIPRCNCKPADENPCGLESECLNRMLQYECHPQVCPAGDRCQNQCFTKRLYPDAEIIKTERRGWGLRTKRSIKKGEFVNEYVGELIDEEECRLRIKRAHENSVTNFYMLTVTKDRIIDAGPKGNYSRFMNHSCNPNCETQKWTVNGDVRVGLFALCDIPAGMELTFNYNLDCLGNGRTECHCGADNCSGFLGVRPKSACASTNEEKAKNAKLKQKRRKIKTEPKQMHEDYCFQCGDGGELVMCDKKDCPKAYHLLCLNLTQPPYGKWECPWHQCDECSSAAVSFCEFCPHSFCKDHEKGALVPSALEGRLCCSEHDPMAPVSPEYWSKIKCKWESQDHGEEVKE

These results are taken from ChEMBL document CHEMBL5446079, “Affinity Biochemical Literature for EUbOPEN Chemogenomic Library” (2024).

Dual specificity protein kinase CLK1, sequence (P49759 whole entry): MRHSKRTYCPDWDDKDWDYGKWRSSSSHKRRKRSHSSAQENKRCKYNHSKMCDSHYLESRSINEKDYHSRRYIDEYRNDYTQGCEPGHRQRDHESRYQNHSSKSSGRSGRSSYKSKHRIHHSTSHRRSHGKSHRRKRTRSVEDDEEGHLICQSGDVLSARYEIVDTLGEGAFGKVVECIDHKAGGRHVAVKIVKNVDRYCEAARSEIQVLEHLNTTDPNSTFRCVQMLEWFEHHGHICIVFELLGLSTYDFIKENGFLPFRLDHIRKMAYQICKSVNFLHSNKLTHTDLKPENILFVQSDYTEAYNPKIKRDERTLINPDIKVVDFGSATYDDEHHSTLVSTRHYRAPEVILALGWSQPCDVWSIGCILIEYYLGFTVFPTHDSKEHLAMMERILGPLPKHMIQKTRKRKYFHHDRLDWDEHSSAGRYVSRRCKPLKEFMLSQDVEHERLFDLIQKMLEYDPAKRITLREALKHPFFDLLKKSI
CDK8/Cyclin C, sequence (P49336 whole entry): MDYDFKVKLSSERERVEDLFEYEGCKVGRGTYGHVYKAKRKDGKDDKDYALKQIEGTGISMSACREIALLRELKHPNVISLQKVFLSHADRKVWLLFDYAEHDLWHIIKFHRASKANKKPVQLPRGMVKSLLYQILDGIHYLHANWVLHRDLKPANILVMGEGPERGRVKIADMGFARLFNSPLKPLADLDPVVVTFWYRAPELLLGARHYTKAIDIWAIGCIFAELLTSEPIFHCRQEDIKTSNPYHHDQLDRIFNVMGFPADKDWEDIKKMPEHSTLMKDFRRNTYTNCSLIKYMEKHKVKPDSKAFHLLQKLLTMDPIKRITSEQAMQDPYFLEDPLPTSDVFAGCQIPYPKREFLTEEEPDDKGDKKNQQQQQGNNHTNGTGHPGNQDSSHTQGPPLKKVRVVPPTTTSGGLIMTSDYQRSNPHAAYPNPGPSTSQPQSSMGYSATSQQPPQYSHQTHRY
CDK8/Cyclin C, sequence (P24863 whole entry, further chain): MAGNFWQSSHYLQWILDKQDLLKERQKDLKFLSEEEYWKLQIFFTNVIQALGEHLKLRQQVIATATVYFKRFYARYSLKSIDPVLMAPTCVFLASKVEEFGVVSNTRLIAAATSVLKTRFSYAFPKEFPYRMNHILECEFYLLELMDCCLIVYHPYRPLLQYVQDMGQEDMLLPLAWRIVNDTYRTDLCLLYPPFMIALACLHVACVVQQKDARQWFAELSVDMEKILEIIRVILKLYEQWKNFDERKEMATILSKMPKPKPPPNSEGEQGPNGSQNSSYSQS
Dual specificity protein kinase CLK2, sequence (P49760 whole entry): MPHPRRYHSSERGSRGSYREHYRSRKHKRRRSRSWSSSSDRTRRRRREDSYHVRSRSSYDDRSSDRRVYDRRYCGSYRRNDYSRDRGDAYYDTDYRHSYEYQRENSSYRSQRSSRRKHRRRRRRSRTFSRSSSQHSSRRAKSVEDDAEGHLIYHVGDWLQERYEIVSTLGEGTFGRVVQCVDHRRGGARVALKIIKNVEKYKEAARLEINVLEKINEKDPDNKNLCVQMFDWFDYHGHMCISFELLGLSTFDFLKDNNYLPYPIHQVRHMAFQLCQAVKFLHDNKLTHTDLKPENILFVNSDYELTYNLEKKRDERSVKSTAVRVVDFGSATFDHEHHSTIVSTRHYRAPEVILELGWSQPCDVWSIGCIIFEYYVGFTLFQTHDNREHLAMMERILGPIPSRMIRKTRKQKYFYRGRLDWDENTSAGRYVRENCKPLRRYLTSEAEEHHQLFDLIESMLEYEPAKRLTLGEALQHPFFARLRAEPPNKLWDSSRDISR
SRSF protein kinase 2, sequence (P78362 whole entry): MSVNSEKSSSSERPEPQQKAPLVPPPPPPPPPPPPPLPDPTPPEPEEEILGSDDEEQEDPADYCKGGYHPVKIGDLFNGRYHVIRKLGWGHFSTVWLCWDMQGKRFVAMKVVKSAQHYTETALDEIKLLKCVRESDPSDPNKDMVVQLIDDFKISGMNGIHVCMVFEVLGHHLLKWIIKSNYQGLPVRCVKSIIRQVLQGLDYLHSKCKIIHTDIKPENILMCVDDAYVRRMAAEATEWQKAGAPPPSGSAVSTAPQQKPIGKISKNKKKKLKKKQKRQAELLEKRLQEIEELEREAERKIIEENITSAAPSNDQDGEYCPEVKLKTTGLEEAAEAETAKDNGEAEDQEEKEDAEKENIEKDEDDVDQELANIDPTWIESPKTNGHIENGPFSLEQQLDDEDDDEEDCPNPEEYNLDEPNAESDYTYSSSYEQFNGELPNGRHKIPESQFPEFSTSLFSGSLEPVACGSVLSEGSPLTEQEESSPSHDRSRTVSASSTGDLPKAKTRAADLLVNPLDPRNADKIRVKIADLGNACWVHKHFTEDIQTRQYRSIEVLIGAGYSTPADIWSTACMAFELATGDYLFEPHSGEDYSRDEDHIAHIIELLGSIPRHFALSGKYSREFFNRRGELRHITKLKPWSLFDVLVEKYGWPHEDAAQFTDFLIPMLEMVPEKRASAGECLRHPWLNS
Chromatin remodeling regulator CECR2, sequence (Q9BXF3 whole entry): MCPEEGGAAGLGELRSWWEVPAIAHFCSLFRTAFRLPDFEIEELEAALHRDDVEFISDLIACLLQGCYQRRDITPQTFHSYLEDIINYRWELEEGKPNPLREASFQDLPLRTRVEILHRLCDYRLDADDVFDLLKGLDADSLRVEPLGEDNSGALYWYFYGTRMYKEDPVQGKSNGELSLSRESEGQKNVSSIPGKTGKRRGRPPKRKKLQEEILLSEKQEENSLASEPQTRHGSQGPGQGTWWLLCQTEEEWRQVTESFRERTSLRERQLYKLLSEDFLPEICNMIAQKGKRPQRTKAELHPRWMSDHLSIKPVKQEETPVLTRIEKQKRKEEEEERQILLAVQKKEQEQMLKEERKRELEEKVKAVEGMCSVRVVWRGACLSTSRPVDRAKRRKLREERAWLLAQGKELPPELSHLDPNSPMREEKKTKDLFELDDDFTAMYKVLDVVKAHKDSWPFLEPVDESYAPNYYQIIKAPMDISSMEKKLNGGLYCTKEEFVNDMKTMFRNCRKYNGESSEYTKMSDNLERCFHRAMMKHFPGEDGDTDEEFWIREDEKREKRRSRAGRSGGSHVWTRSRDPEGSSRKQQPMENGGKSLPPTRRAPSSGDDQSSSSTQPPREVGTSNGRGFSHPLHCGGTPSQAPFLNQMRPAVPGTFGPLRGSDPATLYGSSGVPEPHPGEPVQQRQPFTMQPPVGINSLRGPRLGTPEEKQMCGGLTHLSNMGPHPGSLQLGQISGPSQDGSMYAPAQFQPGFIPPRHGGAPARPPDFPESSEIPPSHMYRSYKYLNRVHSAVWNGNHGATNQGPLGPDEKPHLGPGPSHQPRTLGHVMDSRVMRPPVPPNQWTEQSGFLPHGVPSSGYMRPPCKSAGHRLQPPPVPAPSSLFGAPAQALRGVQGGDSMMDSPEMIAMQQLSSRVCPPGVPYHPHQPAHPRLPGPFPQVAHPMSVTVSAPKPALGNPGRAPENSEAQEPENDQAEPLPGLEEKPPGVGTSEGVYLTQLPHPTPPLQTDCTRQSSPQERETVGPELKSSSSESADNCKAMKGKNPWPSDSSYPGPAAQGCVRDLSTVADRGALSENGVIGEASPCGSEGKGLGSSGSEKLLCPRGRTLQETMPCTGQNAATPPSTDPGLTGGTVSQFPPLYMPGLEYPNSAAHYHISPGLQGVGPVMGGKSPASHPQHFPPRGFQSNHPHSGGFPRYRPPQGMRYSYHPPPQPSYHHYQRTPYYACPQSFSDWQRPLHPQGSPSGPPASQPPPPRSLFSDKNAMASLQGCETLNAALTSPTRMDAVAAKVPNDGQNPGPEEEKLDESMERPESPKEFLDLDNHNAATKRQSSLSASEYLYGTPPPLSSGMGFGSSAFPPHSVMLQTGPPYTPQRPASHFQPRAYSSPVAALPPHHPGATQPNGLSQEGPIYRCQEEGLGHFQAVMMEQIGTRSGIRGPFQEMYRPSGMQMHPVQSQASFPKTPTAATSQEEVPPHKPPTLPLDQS
Dual specificity protein kinase CLK4, sequence (Q9HAZ1 whole entry): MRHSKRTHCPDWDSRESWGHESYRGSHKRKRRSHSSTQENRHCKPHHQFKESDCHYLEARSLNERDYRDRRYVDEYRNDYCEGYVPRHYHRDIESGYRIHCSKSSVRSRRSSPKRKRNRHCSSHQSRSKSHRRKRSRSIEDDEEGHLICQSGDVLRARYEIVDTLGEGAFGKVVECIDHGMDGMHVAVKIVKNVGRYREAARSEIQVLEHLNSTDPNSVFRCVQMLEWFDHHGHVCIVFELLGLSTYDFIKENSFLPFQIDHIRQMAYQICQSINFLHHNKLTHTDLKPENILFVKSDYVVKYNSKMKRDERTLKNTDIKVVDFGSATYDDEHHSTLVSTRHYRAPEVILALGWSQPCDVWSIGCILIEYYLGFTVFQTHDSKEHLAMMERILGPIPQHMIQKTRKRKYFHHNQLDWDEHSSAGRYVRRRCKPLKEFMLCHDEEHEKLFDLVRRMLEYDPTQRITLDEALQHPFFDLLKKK

By IC50 is commonly meant the concentration that gives 50% inhibition. Low values mean inhibition by little substance, high ones a need for much substance. As for `CN(c1ncccc1CNc1ccnc(-c2cc3cc(Cl)ccc3[nH]2)n1)S(C)(=O)=O`, the IC50 at SRSF protein kinase 2 and on SRSF protein kinase 1 was over 10 µM each time.

For the molecule `COc1cc(Nc2nc(C)cc(-c3cnn4nc(OC)ccc34)n2)cc(C(F)(F)F)c1`, the IC50 in test [1], in [2] and in [3] was over 10 µM in each case.

Turning to `CN(C)CCCOc1ccc(-c2cc(NCCCn3cccn3)nc(S(C)(=O)=O)n2)cc1`, the IC50 in test [4] and in test [5] was 30.3 µM throughout.

Regarding `CCn1c(-c2nc3cc(C(=O)N4CCCC(N)C4)ccc3n2C)cc2ccccc21` (stereo unspecified), in test [6], the IC50 was over 100 µM.

`CN(C)C(=O)Cn1cc(-c2ccc(-c3nnc4ccccn34)cc2)cn1` came in with an IC50 against CDK8/Cyclin C of 0.671 µM.

As usually defined, the Kd is the equilibrium constant for the complex coming apart. Higher therefore signals a looser complex. Regarding `CC(=O)c1cc(-c2ccccc2OCC2CC2)c2ncccn12`, the Kd in [7] is over 20 µM.

`Cc1cc(CN)cc(C)c1-c1ncn(C)c1-c1cncn1C`: the IC50 in test [8] is 120 µM.
